Patent publication US20200223889A1, “Bicyclic Compounds Capable of Binding to Melanocortin 4 Receptor” (Novo Nordisk A/S, priority 2017, published 2020)
Like-named read-outs stand apart in the source and are kept apart here. Positions of bridges follow the written chain, without caps; N, C: chain ends. Non-standard residues stand in square brackets, D forms with d. Residues, ends and D or L forms follow the SMILES beside them. Cit = NC(=O)NCCC[C@H](N)C(=O)O; Agp = N=C(N)NC[C@H](N)C(=O)O; Api = NC1(C(=O)O)CCNCC1; Aib = CC(C)(N)C(=O)O

How the values were obtained:
human MC4R [1] = biological target: T1, human MC4R (Homo sapiens, UniProt P32245); assay: Functional cAMP assay (CisBio HTRF) in BHK cells expressing human MC4R; format: cell-based; details: for MC1R/MC4R cAMP EC50 ratio: MC1R cAMP EC50 divided by MC4R cAMP EC50
T1 construct: expressed in transfected cells
In short: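 Stably transfected BHK cells expressing human MC1R or MC4R; cAMP quantified by HTRF (cAMP-d2/cryptate) after 30 min compound stimulation at 25 °C in DMEM-based buffer with 1 mM IBMX. Compounds were prepared as 10-fold serial dilutions starting at 2 μM (working solution, 2× final). Readout after 1 h at 25 °C; non-linear regression.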

human MC4R [2] = biological target: T1, human MC4R; assay: 125NDP-α-MSH competitive binding to membranes of BHK cells expressing human MC4 receptor (filtration assay)
Experimental: In Vitro ^125NDP-α-MSH Binding to Recombinant BHK Cells Expressing Human MC4 Receptor (Filtration Assay)
In order to assess the binding affinity of the selected compounds for the human MC4R competitive binding assays was performed with radiolabeled NDP-alpha MSH (^125NDP-α-MSH).
The assay was performed in 96-well filterplates (Unifilter) using BHK cells stably expressing the human MC4 receptor.
The BHK cell membranes were prepared from frozen or fresh cells that were homogenized in 20 mM HEPES pH 7.1, 5 mM MgCl2, 1 mg/ml bacitracin (buffer 1) and centrifuged at 15000 rpm at 4° C., 10 min in a Sorvall RC 5B plus, SS-34 rotor. The supernatant was discarded, and the pellets were re-suspended in buffer 1, homogenized and centrifuged two more times. The final pellets were re-suspended in buffer 1 and the protein concentration was measured and adjusted with buffer 1 to 5 mg/ml and the membrane preparation was kept at −80° C. until assay. The assay was run on a dilution of this cell membrane suspension without any further preparation. The suspension was diluted to give maximally 10% specific binding, i.e. to approx. 50-100 fold dilution, optimized after each membrane preparation. The assay was performed in a total volume of 200 μl: 50 μl of cell suspension, 50 μl of ^125NDP-α-MSH (apx. […] in final concentration), 50 μl of test compound and 50 μl binding buffer were mixed and incubated for 2 h at 25° C. (binding buffer: 25 mM HEPES, pH 7.0, 1 mM CaCl2), 1 mM MgSO4, 1 mM EGTA, 0.005% Tween™ 20 and 0.1% HSA or, alternatively, 0.1% ovalbumin (Sigma; catalogue No. A-5503)). Test compounds were dissolved in 100% DMSO and diluted in binding buffer in a dose range from 1 μM to 0.001 nM. Radiolabelled ligand and membranes were diluted in binding buffer. The incubation was stopped by dilution with 8×100 μl ice-cold 0.9% NaCl. The radioactivity retained on the filters was counted using a Packard Topcounter. The data were analysed by non-linear regression analysis of binding curves, using the Windows™ program GraphPad™ Prism (GraphPad Software, USA).

[3] = BHK cells expressing human MC4R, '>' = highest dose used with no response, read-out: MC4R cAMP EC50
[4] = human MC4R, BHK cell membranes, 125NDP-α-MSH radioligand, read-out: MC4R binding Ki

T1 sequence (P32245 whole entry): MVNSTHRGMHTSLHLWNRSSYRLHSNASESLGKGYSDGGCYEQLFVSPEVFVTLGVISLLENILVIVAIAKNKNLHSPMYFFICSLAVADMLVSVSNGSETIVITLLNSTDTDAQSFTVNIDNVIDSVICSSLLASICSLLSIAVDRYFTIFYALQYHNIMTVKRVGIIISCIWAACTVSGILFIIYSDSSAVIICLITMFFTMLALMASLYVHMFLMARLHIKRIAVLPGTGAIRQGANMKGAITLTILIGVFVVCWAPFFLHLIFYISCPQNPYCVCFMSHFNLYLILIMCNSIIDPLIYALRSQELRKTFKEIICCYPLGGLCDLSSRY

SMILES	EC50 (human MC4R [1]; [3])	MC1R/MC4R cAMP EC50 ratio (human MC4R [1])	Ki (human MC4R [2]; [4])	EC50 (human MC4R [1])	Ki (human MC4R [2])
CC(C)[C@H]1NC(=O)[C@@H]2CSSC[C@H](NC(=O)[C@H](Cc3c[nH]c4ccccc34)NC(=O)[C@H](CCCNC(=N)N)NC(=O)[C@@H](Cc3ccccc3)NC(=O)[C@H](Cc3c[nH]cn3)NC1=O)C(=O)N[C@H](C(C)C)C(=O)N[C@@H](Cc1c[nH]cn1)C(=O)N[C@H](Cc1ccccc1)C(=O)N[C@@H](CCCNC(=N)N)C(=O)N[C@@H](Cc1c[nH]c3ccccc13)C(=O)N2 [Chem. 34, c[c[Cys-D-Val-His-D-Phe-Arg-Trp- Cys]-D-Val-His-D-Phe-Arg-Trp]] (cyclo(C[dV]H[dF]RWC[dV]H[dF]RW); disulfide 1-7)	0.12 nM	22	0.88 nM		
CC(C)[C@@H]1NC(=O)[C@@H]2CSSC[C@H](NC(=O)[C@H](Cc3c[nH]c4ccccc34)NC(=O)[C@H](CCCNC(=N)N)NC(=O)[C@@H](Cc3ccccc3)NC(=O)[C@H](Cc3c[nH]cn3)NC1=O)C(=O)N[C@@H](C(C)C)C(=O)N[C@@H](Cc1c[nH]cn1)C(=O)N[C@H](Cc1ccccc1)C(=O)N[C@@H](CCCNC(=N)N)C(=O)N[C@@H](Cc1c[nH]c3ccccc13)C(=O)N2 [Chem. 36, c[c[Cys-Val-His-D-Phe-Arg-Trp-Cys]- Val-His-D-Phe-Arg-Trp]] (cyclo(CVH[dF]RWCVH[dF]RW); disulfide 1-7)	0.04 nM	26	0.12 nM		
CC1(C)NC(=O)[C@@H]2CSSC[C@H](NC(=O)[C@H](Cc3c[nH]c4ccccc34)NC(=O)[C@H](CCCCN)NC(=O)[C@@H](Cc3ccccc3)NC(=O)[C@H](Cc3c[nH]cn3)NC1=O)C(=O)NC(C)(C)C(=O)N[C@@H](Cc1c[nH]cn1)C(=O)N[C@H](Cc1ccccc1)C(=O)N[C@@H](CCCCN)C(=O)N[C@@H](Cc1c[nH]c3ccccc13)C(=O)N2 [Chem. 40, c[c[Cys-Aib-His-D-Phe-Lys-Trp-Cys]- Aib-His-D-Phe-Lys-Trp]] (cyclo([Aib]H[dF]KWC[Aib]H[dF]KWC); disulfide 6-12)	0.29 nM	38	0.31 nM		
CC1(C)NC(=O)[C@@H]2CSSC[C@H](NC(=O)[C@H](Cc3c[nH]c4ccccc34)NC(=O)[C@H](CNC(=N)N)NC(=O)[C@@H](Cc3ccccc3)NC(=O)[C@H](Cc3c[nH]cn3)NC1=O)C(=O)NC(C)(C)C(=O)N[C@@H](Cc1c[nH]cn1)C(=O)N[C@H](Cc1ccccc1)C(=O)N[C@@H](CNC(=N)N)C(=O)N[C@@H](Cc1c[nH]c3ccccc13)C(=O)N2 [Chem. 43, c[c[Cys-Aib-His-D-Phe-AGP-Trp- Cys]-Aib-His-D-Phe-AGP-Trp]] (cyclo([Agp]WC[Aib]H[dF][Agp]WC[Aib]H[dF]); disulfide 3-9)	0.44 nM	107	2.61 nM		
N=C(N)NCCC[C@@H]1NC(=O)[C@@H](Cc2ccccc2)NC(=O)[C@H](Cc2c[nH]cn2)NC(=O)C2(CCNCC2)NC(=O)[C@@H]2CSSC[C@H](NC(=O)[C@H](Cc3c[nH]c4ccccc34)NC1=O)C(=O)NC1(CCNCC1)C(=O)N[C@@H](Cc1c[nH]cn1)C(=O)N[C@H](Cc1ccccc1)C(=O)N[C@@H](CCCNC(=N)N)C(=O)N[C@@H](Cc1c[nH]c3ccccc13)C(=O)N2 [Chem. 47, c[c[Cys-ACP-His-D-Phe-Arg-Trp- Cys]-ACP-His-D-Phe-Arg-Trp]] (cyclo([Api]H[dF]RWC[Api]H[dF]RWC); disulfide 6-12)		23		0.12 nM	0.72 nM
N=C(N)NCCC[C@@H]1NC(=O)[C@@H]2CSSC[C@H](NC(=O)[C@H](Cc3c[nH]c4ccccc34)NC(=O)[C@H](CCCNC(N)=O)NC(=O)[C@@H](Cc3ccccc3)NC(=O)[C@H](Cc3c[nH]cn3)NC1=O)C(=O)N[C@@H](CCCNC(=N)N)C(=O)N[C@@H](Cc1c[nH]cn1)C(=O)N[C@H](Cc1ccccc1)C(=O)N[C@@H](CCCNC(N)=O)C(=O)N[C@@H](Cc1c[nH]c3ccccc13)C(=O)N2 [Chem. 54, c[c[Cys-Arg-His-D-Phe-Cit-Trp-Cys]- Arg-His-D-Phe-Cit-Trp]] (cyclo(CRH[dF][Cit]WCRH[dF][Cit]W); disulfide 1-7)	0.04 nM	7	0.21 nM		

Further lines, with some results ahead:

EC50 (human MC4R [1]; [3])	MC1R/MC4R cAMP EC50 ratio (human MC4R [1])	Ki (human MC4R [2]; [4])	SMILES	EC50 (human MC4R [1])	Ki (human MC4R [2])
0.06 nM	152	0.15 nM	C[C@@H]1NC(=O)[C@@H]2CSSC[C@H](NC(=O)[C@H](Cc3c[nH]c4ccccc34)NC(=O)[C@H](CCCNC(N)=O)NC(=O)[C@@H](Cc3ccccc3)NC(=O)[C@H](Cc3c[nH]cn3)NC1=O)C(=O)N[C@@H](C)C(=O)N[C@@H](CCCCN)C(=O)N[C@@H](CCCCN)C(=O)N[C@@H](CCCCN)C(=O)N[C@@H](Cc1c[nH]c3ccccc13)C(=O)N2 [Chem. 48, c[c[Cys-Ala-His-D-Phe-Cit-Trp-Cys]- Ala-Lys-Lys-Lys-Trp]] (cyclo(AH[dF][Cit]WCAKKKWC); disulfide 6-12)		
0.19 nM	55	0.21 nM	C[C@@H]1NC(=O)[C@@H]2CSSC[C@H](NC(=O)[C@H](Cc3c[nH]c4ccccc34)NC(=O)[C@H](CCC(N)=O)NC(=O)[C@@H](Cc3ccccc3)NC(=O)[C@H](Cc3c[nH]cn3)NC1=O)C(=O)N[C@@H](C)C(=O)N[C@@H](CCCCN)C(=O)N[C@H](CCCCN)C(=O)N[C@@H](CCCCN)C(=O)N[C@@H](Cc1c[nH]c3ccccc13)C(=O)N2 [Chem. 57, c[c[Cys-Ala-His-D-Phe-Gln-Trp-Cys]- Ala-Lys-D-Lys-Lys-Trp]] (cyclo(AH[dF]QWCAK[dK]KWC); disulfide 6-12)		
0.11 nM	36	0.09 nM	CC(=O)NCCCC[C@@H]1NC(=O)[C@@H](Cc2ccccc2)NC(=O)[C@H](Cc2c[nH]cn2)NC(=O)[C@H](C)NC(=O)[C@@H]2CSSC[C@H](NC(=O)[C@H](Cc3c[nH]c4ccccc34)NC1=O)C(=O)N[C@@H](C)C(=O)N[C@@H](CCCCN)C(=O)N[C@H](CCCCN)C(=O)N[C@@H](CCCCN)C(=O)N[C@@H](Cc1c[nH]c3ccccc13)C(=O)N2 [Chem. 58, c[c[Cys-Ala-His-D-Phe-AcLys-Trp- Cys]-Ala-Lys-D-Lys-Lys-Trp]] (cyclo(AH[dF]K(Ac)WCAK[dK]KWC); disulfide 6-12)		
0.17 nM	313	0.1 nM	C[C@@H]1NC(=O)[C@@H]2CSSC[C@H](NC(=O)[C@H](Cc3c[nH]c4ccccc34)NC(=O)[C@H](Cc3c[nH]cn3)NC(=O)[C@@H](Cc3ccccc3)NC(=O)[C@H](Cc3c[nH]cn3)NC1=O)C(=O)N[C@@H](C)C(=O)N[C@@H](CCCCN)C(=O)N[C@@H](CCCCN)C(=O)N[C@@H](CCCCN)C(=O)N[C@@H](Cc1c[nH]c3ccccc13)C(=O)N2 [Chem. 60, c[c[Cys-Ala-His-D-Phe-His-Trp-Cys]- Ala-Lys-Lys-Lys-Trp]] (cyclo(AH[dF]HWCAKKKWC); disulfide 6-12)		
0.02 nM	42	0.08 nM	C[C@@H]1NC(=O)[C@@H]2CSSC(C)(C)[C@H](NC(=O)[C@H](Cc3c[nH]c4ccccc34)NC(=O)[C@H](CCCNC(=N)N)NC(=O)[C@@H](Cc3ccccc3)NC(=O)[C@H](Cc3c[nH]cn3)NC1=O)C(=O)N[C@@H](C)C(=O)N[C@@H](Cc1c[nH]cn1)C(=O)N[C@H](Cc1ccccc1)C(=O)N[C@@H](CCCNC(=N)N)C(=O)N[C@@H](Cc1c[nH]c3ccccc13)C(=O)N2 [Chem. 63, c[c[Pen-Ala-His-D-Phe-Arg-Trp-Cys]- Ala-His-D-Phe-Arg-Trp]]		
